Tested on: MATIN
Experiment: A. Herbicidal pre-emergence action on harmful plants (Tables A)
Assay type: in vivo, Matricaria inodora
Conditions: application rate 320 g/ha; visual grading after ca. 3 weeks vs untreated controls; 100% = plants have died off, 0% = as control plants
Summary of the method: (§1)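 Values are visual percent damage relative to untreated controls, scored ca. 3 weeks after the compound was sprayed on the covering soil of sown pots (sandy loam) at rates up to 1280 g/ha, formulated as WP or EC with 0.5% additive.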

| Compound | pre-emergence activity against MATIN [%] |
| --- | --- |
| COCc1nn(C)cc1C(=O)N1CCCC1Cc1ccccc1F (single isomer, unassigned) [Example I-003] | 90 |

Same assay, conditions: application rate 1280 g/ha; visual grading after ca. 3 weeks vs untreated controls; 100% = plants have died off, 0% = as control plants

| Compound | pre-emergence activity against MATIN [%] |
| --- | --- |
| Cn1cc(C(=O)N2CCCC2Cc2ccccc2F)c(COc2ccccc2)n1 (racemic) [Example I-006] | 90 |
| COCc1nn(C)cc1C(=O)N1CCCC1Cc1ccccc1F (single isomer, unassigned) [Example I-003] | 90 |

Tested on: STEME
Experiment: as above
Assay type: in vivo, Stellaria media
Conditions: application rate 80 g/ha; visual grading after ca. 3 weeks vs untreated controls; 100% = plants have died off, 0% = as control plants
Summary of the method: as §1

| Compound | pre-emergence activity against STEME [%] |
| --- | --- |
| COCc1nn(C)cc1C(=O)N1CCCC1Cc1ccccc1F (single isomer, unassigned) [Example I-003] | 90 |

Same assay, conditions: application rate 320 g/ha; visual grading after ca. 3 weeks vs untreated controls; 100% = plants have died off, 0% = as control plants

| Compound | pre-emergence activity against STEME [%] |
| --- | --- |
| Cn1cc(C(=O)N2CCCC2Cc2ccccc2F)c(COc2ccccc2)n1 (racemic) [Example I-006] | 90 |
| COCc1nn(C)cc1C(=O)N1CCCC1Cc1ccccc1F (single isomer, unassigned) [Example I-003] | 90 |

Same assay, conditions: application rate 1280 g/ha; visual grading after ca. 3 weeks vs untreated controls; 100% = plants have died off, 0% = as control plants

| Compound | pre-emergence activity against STEME [%] |
| --- | --- |
| Cn1cc(C(=O)N2CCCC2Cc2ccccc2F)c(COc2ccccc2)n1 (racemic) [Example I-006] | 90 |
| COCc1nn(C)cc1C(=O)N1CCCC1Cc1ccccc1F (single isomer, unassigned) [Example I-003] | 90 |

Tested on: ZEAMX
Experiment: F. Post-emergence effects on crop plants (Tables F)
Assay type: in vivo, Zea mays
Conditions: application rate 80 g/ha, crop plant
Summary of the method: (§2)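 Plants were grown in sandy loam in a greenhouse and sprayed post-emergence at the single-leaf stage, 2–3 weeks after sowing. Visual damage was scored after ca. 3 weeks against untreated controls (0% = as control, 100% = dead).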

| Compound | post-emergence activity against ZEAMX in % [%] |
| --- | --- |
| Cn1cc(C(=O)N2CCCC2Cc2ccccc2F)c(COc2ccccc2)n1 (racemic) [Example I-006] | 10 |

Same assay, conditions: application rate 320 g/ha, crop plant

| Compound | post-emergence activity against ZEAMX in % [%] |
| --- | --- |
| Cn1cc(C(=O)N2CCCC2Cc2ccccc2F)c(COc2ccccc2)n1 (racemic) [Example I-006] | 20 |

Tested on: LOLRI
Experiment: C. Herbicidal pre-emergence action, weed and crop plants (Tables C)
Assay type: in vivo, Lolium rigidum
Conditions: application rate 320 g/ha; Table C7a
From the text: (§3) Seeds of mono- and dicotyledonous weed plants and crop plants were sown, in plastic or organic planting pots, in sandy loam and covered with soil. The compounds according to the invention, formulated in the form of wettable powders (WP) or as emulsifiable concentrates (EC), were applied to the surface of the covering soil as aqueous suspension or emulsion, with the addition of 0.5% of an additive, at an application rate of 6001 of water/ha (converted). Following treatment, the pots were placed in a greenhouse and kept under optimum growth conditions for the test plants. The visual grading of the damage to the test plants was carried out after ca. 3 weeks in comparison to untreated controls (herbicidal effect in percent (%): 100% effect = plants have died off, 0% effect = as control plants). Tables C1 to C12 below show the effects of selected compounds of the general formula (I) according to table 1 on various harmful plants and an application rate corresponding to 320 g/ha or below obtained by the experimental procedure mentioned above. Table C1: pre-emergence activity at 320g/ha against KCHSC in %

| Compound | pre-emergence activity against LOLRI [%] |
| --- | --- |
| COCc1nn(C)cc1C(=O)N1CCCC1Cc1ccccc1F (single isomer, unassigned) [Example I-003] | 90 |

Tested on: POAAN
Experiment: A. Herbicidal pre-emergence action on harmful plants (Tables A)
Assay type: in vivo, Poa annua
Conditions: application rate 80 g/ha; Table A7c
Summary of the method: as §1

| Compound | pre-emergence activity against POAAN [%] |
| --- | --- |
| Cn1cc(C(=O)N2CCCC2Cc2ccccc2F)c(COc2ccccc2)n1 (racemic) [Example I-006] | 100 |
| COCc1nn(C)cc1C(=O)N1CCCC1Cc1ccccc1F (single isomer, unassigned) [Example I-003] | 100 |

Same assay, conditions: application rate 320 g/ha; Table A7b

| Compound | pre-emergence activity against POAAN [%] |
| --- | --- |
| Cn1cc(C(=O)N2CCCC2Cc2ccccc2F)c(COc2ccccc2)n1 (racemic) [Example I-006] | 100 |
| COCc1nn(C)cc1C(=O)N1CCCC1Cc1ccccc1F (single isomer, unassigned) [Example I-003] | 100 |

Same assay, conditions: application rate 1280 g/ha; visual grading after ca. 3 weeks vs untreated controls; 100% = plants have died off, 0% = as control plants

| Compound | pre-emergence activity against POAAN [%] |
| --- | --- |
| Cn1cc(C(=O)N2CCCC2Cc2ccccc2F)c(COc2ccccc2)n1 (racemic) [Example I-006] | 100 |
| COCc1nn(C)cc1C(=O)N1CCCC1Cc1ccccc1F (single isomer, unassigned) [Example I-003] | 100 |

Tested on: DIGSA
Experiment: as above
Assay type: in vivo, Digitaria sanguinalis
Conditions: application rate 80 g/ha; Table A12c
Summary of the method: as §1

| Compound | pre-emergence activity against DIGSA [%] |
| --- | --- |
| COCc1nn(C)cc1C(=O)N1CCCC1Cc1ccccc1F (single isomer, unassigned) [Example I-003] | 100 |

Same assay, conditions: application rate 320 g/ha; Table A12b

| Compound | pre-emergence activity against DIGSA [%] |
| --- | --- |
| Cn1cc(C(=O)N2CCCC2Cc2ccccc2F)c(COc2ccccc2)n1 (racemic) [Example I-006] | 90 |
| COCc1nn(C)cc1C(=O)N1CCCC1Cc1ccccc1F (single isomer, unassigned) [Example I-003] | 100 |

Same assay, conditions: application rate 1280 g/ha; Table A12a

| Compound | pre-emergence activity against DIGSA [%] |
| --- | --- |
| Cn1cc(C(=O)N2CCCC2Cc2ccccc2F)c(COc2ccccc2)n1 (racemic) [Example I-006] | 100 |
| COCc1nn(C)cc1C(=O)N1CCCC1Cc1ccccc1F (single isomer, unassigned) [Example I-003] | 100 |

Tested on: ECHCG
Experiment: as above
Assay type: in vivo, Echinochloa crus-galli
Conditions: application rate 80 g/ha; visual grading after ca. 3 weeks vs untreated controls; 100% = plants have died off, 0% = as control plants
Summary of the method: as §1

| Compound | pre-emergence activity against ECHCG [%] |
| --- | --- |
| COCc1nn(C)cc1C(=O)N1CCCC1Cc1ccccc1F (single isomer, unassigned) [Example I-003] | 100 |

Same assay, conditions: application rate 320 g/ha; visual grading after ca. 3 weeks vs untreated controls; 100% = plants have died off, 0% = as control plants

| Compound | pre-emergence activity against ECHCG [%] |
| --- | --- |
| COCc1nn(C)cc1C(=O)N1CCCC1Cc1ccccc1F (single isomer, unassigned) [Example I-003] | 100 |

Same assay, conditions: application rate 1280 g/ha; visual grading after ca. 3 weeks vs untreated controls; 100% = plants have died off, 0% = as control plants

| Compound | pre-emergence activity against ECHCG [%] |
| --- | --- |
| Cn1cc(C(=O)N2CCCC2Cc2ccccc2F)c(COc2ccccc2)n1 (racemic) [Example I-006] | 90 |
| COCc1nn(C)cc1C(=O)N1CCCC1Cc1ccccc1F (single isomer, unassigned) [Example I-003] | 100 |

Tested on: GLXMA
Experiment: F. Post-emergence effects on crop plants (Tables F)
Assay type: in vivo, Glycine max
Conditions: application rate 80 g/ha, crop plant
Summary of the method: as §2

| Compound | post-emergence activity against GLXMA in % [%] |
| --- | --- |
| Cn1cc(C(=O)N2CCCC2Cc2ccccc2F)c(COc2ccccc2)n1 (racemic) [Example I-006] | 0 |

Same assay, conditions: application rate 320 g/ha, crop plant

| Compound | post-emergence activity against GLXMA in % [%] |
| --- | --- |
| COCc1nn(C)cc1C(=O)N1CCCC1Cc1ccccc1F (single isomer, unassigned) [Example I-003] | 10 |

Tested on: DIGSA
Experiment: C. Herbicidal pre-emergence action, weed and crop plants (Tables C)
Assay type: in vivo, Digitaria sanguinalis
Conditions: application rate 320 g/ha; Table C5a
From the text: as §3

| Compound | pre-emergence activity against DIGSA [%] |
| --- | --- |
| Cn1cc(C(=O)N2CCCC2Cc2ccccc2F)c(COc2ccccc2)n1 (racemic) [Example I-006] | 100 |

Tested on: BRSNW
Experiment: D. Pre-emergence effects on crop plants (Tables D)
Assay type: in vivo, Brassica napus
Conditions: application rate 80 g/ha, crop plant
Summary of the method: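 Seeds sown in sandy loam and covered; WP or EC formulations sprayed onto the soil surface as aqueous suspension/emulsion with 0.5% additive, at 320 g/ha or below. Greenhouse-grown; visual damage scored after ca. 3 weeks against untreated controls (0% = as control, 100% = plants dead).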

| Compound | pre-emergence activity against BRSNW in % [%] |
| --- | --- |
| Cn1cc(C(=O)N2CCCC2Cc2ccccc2F)c(COc2ccccc2)n1 (racemic) [Example I-006] | 0 |
| COCc1nn(C)cc1C(=O)N1CCCC1Cc1ccccc1F (single isomer, unassigned) [Example I-003] | 0 |

Same assay, conditions: application rate 320 g/ha, crop plant

| Compound | pre-emergence activity against BRSNW in % [%] |
| --- | --- |
| Cn1cc(C(=O)N2CCCC2Cc2ccccc2F)c(COc2ccccc2)n1 (racemic) [Example I-006] | 10 |
| COCc1nn(C)cc1C(=O)N1CCCC1Cc1ccccc1F (single isomer, unassigned) [Example I-003] | 0 |

Tested on: SETVI
Experiment: C. Herbicidal pre-emergence action, weed and crop plants (Tables C)
Assay type: in vivo, Setaria viridis
Conditions: application rate 320 g/ha; Table C10
From the text: as §3

| Compound | pre-emergence activity against SETVI [%] |
| --- | --- |
| COCc1nn(C)cc1C(=O)N1CCCC1Cc1ccccc1F (single isomer, unassigned) [Example I-003] | 80 |

Tested on: ECHCG
Experiment: as above
Assay type: in vivo, Echinochloa crus-galli
Conditions: application rate 80 g/ha; Table C6b
From the text: as §3

| Compound | pre-emergence activity against ECHCG [%] |
| --- | --- |
| COCc1nn(C)cc1C(=O)N1CCCC1Cc1ccccc1F (single isomer, unassigned) [Example I-003] | 90 |

Same assay, conditions: application rate 320 g/ha; Table C6a

| Compound | pre-emergence activity against ECHCG [%] |
| --- | --- |
| COCc1nn(C)cc1C(=O)N1CCCC1Cc1ccccc1F (single isomer, unassigned) [Example I-003] | 90 |

Tested on: TRZAS
Experiment: F. Post-emergence effects on crop plants (Tables F)
Assay type: in vivo, Triticum aestivum
Conditions: application rate 80 g/ha, crop plant
Summary of the method: as §2

| Compound | post-emergence activity against TRZAS in % [%] |
| --- | --- |
| Cn1cc(C(=O)N2CCCC2Cc2ccccc2F)c(COc2ccccc2)n1 (racemic) [Example I-006] | 20 |

Same assay, conditions: application rate 320 g/ha, crop plant

| Compound | post-emergence activity against TRZAS in % [%] |
| --- | --- |
| Cn1cc(C(=O)N2CCCC2Cc2ccccc2F)c(COc2ccccc2)n1 (racemic) [Example I-006] | 20 |

Reference: patent EP4417602A1, “SUBSTITUTED PYRAZOLE CARBOXAMIDES, SALTS THEREOF AND THEIR USE AS HERBICIDALLY ACTIVE SUBSTANCES” (Bayer AG, priority 2023, dated 2024)
